From patent US8785445B2 (Array BioPharma Inc., priority 2008, dated 2014) come the findings set out here.

In the first experiment the target is T1, human DP2 (Homo sapiens, UniProt Q9Y5Y4).
T1 construct: expressed in transfected cells; membranes prepared
T1 sequence (Q9Y5Y4 1-395): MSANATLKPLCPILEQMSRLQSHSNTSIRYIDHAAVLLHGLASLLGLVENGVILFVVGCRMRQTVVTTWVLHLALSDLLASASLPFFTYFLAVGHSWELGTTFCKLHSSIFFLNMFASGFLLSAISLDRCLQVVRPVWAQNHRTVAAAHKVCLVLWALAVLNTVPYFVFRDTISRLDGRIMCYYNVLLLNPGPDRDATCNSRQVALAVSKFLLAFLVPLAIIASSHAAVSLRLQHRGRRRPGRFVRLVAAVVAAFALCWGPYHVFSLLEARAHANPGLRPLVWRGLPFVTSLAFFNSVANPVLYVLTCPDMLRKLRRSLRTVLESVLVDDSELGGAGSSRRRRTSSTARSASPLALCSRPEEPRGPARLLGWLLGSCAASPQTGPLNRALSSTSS
Nature of the experiment: DP-2 binding inhibition assay (3H-PGD2, membranes of DP2-expressing K562 cells). Conditions: 4% HSA, read-out: EC50 (nM) 4% HSA. Put shortly: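 Displacement of 3H-PGD2 was measured by filtration and scintillation counting after 60 min at room temperature, using membranes of DP2-transfected K562 cells in 0.1% BSA, 1% HSA or 4% HSA.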
For orientation: EC50 means the concentration at which the effect is half-maximal. For `O=C(Nc1cc(-c2ccccc2Cl)ccn1)c1ccc(Oc2cc3c(cc2Cl)C(C(=O)O)CCO3)cc1` (stereo not shown) [Example 122, 6-Chloro-7-(4-(4-(2-chlorophenyl)pyridin-2-ylcarbamoyl)phenoxy)chroman-4-carboxylic acid], the EC50 came out at 2580 nM.
Still for that read-out and setting: the figure for `O=C(Nc1ccc(-c2ccc(Cl)cc2)nc1)c1ccc(Oc2cc3c(cc2Cl)C(C(=O)O)CCO3)cc1` (stereo not shown) [Example 123, 6-Chloro-7-(4-(6-(4-chlorophenyl)pyridin-3-ylcarbamoyl)phenoxy)chroman-4-carboxylic acid] is 294 nM; for `O=C(Nc1ccc(-c2cccc(Cl)c2)nc1)c1ccc(Oc2cc3c(cc2Cl)C(C(=O)O)CCO3)cc1` (stereo not shown) [Example 124, 6-Chloro-7-(4-(6-(3-chlorophenyl)pyridin-3-ylcarbamoyl)phenoxy)chroman-4-carboxylic acid] it is 133 nM; for `O=C(Nc1ccc(-c2ccccc2Cl)nc1)c1ccc(Oc2cc3c(cc2Cl)C(C(=O)O)CCO3)cc1` (stereo not shown) [Example 125, 6-Chloro-7-(4-(6-(2-chlorophenyl)pyridin-3-ylcarbamoyl)phenoxy)chroman-4-carboxylic acid] it is 627 nM.
On the same count and under the same terms, under `O=C(Nc1cncc(-c2ccc(Cl)cc2)c1)c1ccc(Oc2cc3c(cc2Cl)C(C(=O)O)CCO3)cc1` (stereo not shown) [Example 126, 6-Chloro-7-(4-(5-(4-chlorophenyl)pyridin-3-ylcarbamoyl)phenoxy)chroman-4-carboxylic acid] stands 469 nM; under `O=C(Nc1cncc(-c2cccc(Cl)c2)c1)c1ccc(Oc2cc3c(cc2Cl)C(C(=O)O)CCO3)cc1` (stereo not shown) [Example 127, 6-Chloro-7-(4-(5-(3-chlorophenyl)pyridin-3-ylcarbamoyl)phenoxy)chroman-4-carboxylic acid], 690 nM.
As to `O=C(Nc1ccnc(-c2ccc(Cl)cc2)c1)c1ccc(Oc2cc3c(cc2Cl)C(C(=O)O)CCO3)cc1` (stereo not shown) [Example 128, 6-Chloro-7-(4-(2-(4-chlorophenyl)pyridin-4-ylcarbamoyl)phenoxy)chroman-4-carboxylic acid], the EC50 stood at 596 nM.
Same read-out and setting: the figure for `O=C(Nc1ccnc(-c2cccc(Cl)c2)c1)c1ccc(Oc2cc3c(cc2Cl)C(C(=O)O)CCO3)cc1` (stereo not shown) [Example 129, 6-Chloro-7-(4-(2-(3-chlorophenyl)pyridin-4-ylcarbamoyl)phenoxy)chroman-4-carboxylic acid] is 437 nM; for `O=C(Nc1nccc(-c2ccc(C(F)(F)F)cc2)n1)c1ccc(Oc2cc3c(cc2Cl)C(C(=O)O)CCO3)cc1` (stereo not shown) [Example 130, 6-Chloro-7-(4-(4-(4-(trifluoromethyl)phenyl)pyrimidin-2-ylcarbamoyl)phenoxy)chroman-4-carboxylic acid] it is 139 nM; for `O=C(Nc1nccc(-c2cccc(C(F)(F)F)c2)n1)c1ccc(Oc2cc3c(cc2Cl)C(C(=O)O)CCO3)cc1` (stereo not shown) [Example 131, 6-Chloro-7-(4-(4-(3-(trifluoromethyl)phenyl)pyrimidin-2-ylcarbamoyl)phenoxy)chroman-4-carboxylic acid] it is 128 nM.
On the same count and under the same terms, the figure for `O=C(Nc1nccc(-c2ccc(Cl)cc2)n1)c1ccc(Oc2cc3c(cc2Cl)C(C(=O)O)CCO3)cc1` (stereo not shown) [Example 132, 6-Chloro-7-(4-(4-(4-chlorophenyl)pyrimidin-2-ylcarbamoyl)phenoxy)chroman-4-carboxylic acid] is 128 nM.
On the same count and under the same terms, under `O=C(Nc1nccc(-c2cccc(Cl)c2)n1)c1ccc(Oc2cc3c(cc2Cl)C(C(=O)O)CCO3)cc1` (stereo not shown) [Example 133, 6-Chloro-7-(4-(4-(3-chlorophenyl)pyrimidin-2-ylcarbamoyl)phenoxy)chroman-4-carboxylic acid] stands 261 nM; under `O=C(Nc1ncc(-c2cccc(Cl)c2)cn1)c1ccc(Oc2cc3c(cc2Cl)C(C(=O)O)CCO3)cc1` (stereo not shown) [Example 134, 6-Chloro-7-(4-(5-(3-chlorophenyl)pyrimidin-2-ylcarbamoyl)phenoxy)chroman-4-carboxylic acid], 426 nM; under `O=C(Nc1cnc(-c2cccc(Cl)c2)nc1)c1ccc(Oc2cc3c(cc2Cl)C(C(=O)O)CCO3)cc1` (stereo not shown) [Example 135, 6-Chloro-7-(4-(2-(3-chlorophenyl)pyrimidin-5-ylcarbamoyl)phenoxy)chroman-4-carboxylic acid], 313 nM.
For `O=C(Nc1cncc(-c2ccc(Cl)cc2)n1)c1ccc(Oc2c(Cl)cc3c(c2Cl)OCCC3C(=O)O)cc1` (stereo not shown) [Example 136, 6,8-Dichloro-7-(4-(6-(4-chlorophenyl)pyrazin-2-ylcarbamoyl)phenoxy)chroman-4-carboxylic acid], the EC50 is 442 nM.
Same read-out and setting: under `O=C(Nc1ccnc(-c2ccc(Cl)cc2)n1)c1ccc(Oc2c(Cl)cc3c(c2Cl)OCCC3C(=O)O)cc1` (stereo not shown) [Example 137, 6,8-Dichloro-7-(4-(2-(4-chlorophenyl)pyrimidin-4-ylcarbamoyl)phenoxy)chroman-4-carboxylic acid] stands 80.9 nM.
On to `O=C(NCCc1ncc(Cl)cc1Cl)c1ccc(Oc2cc3c(cc2Cl)C(C(=O)O)CCO3)cc1` (stereo not shown) [Example 138, Sodium 6-chloro-7-(4-(2-(3,5-dichloropyridin-2-yl)ethylcarbamoyl)phenoxy)chroman-4-carboxylate], for which the half-maximal effective concentration (EC50) was 687 nM.
Same read-out and setting: under `CN(C)c1nc(C(F)(F)F)ccc1CCNC(=O)c1ccc(Oc2cc3c(cc2Cl)C(C(=O)O)CCO3)cc1` (stereo not shown) [Example 139, Sodium 6-chloro-7-(4-(2-(2-(dimethylamino)-6-(trifluoromethyl)pyridin-3-yl)ethylcarbamoyl)phenoxy)chroman-4-carboxylate] stands 40 nM; under `O=C(Nc1cccc(-c2ccc(Cl)cc2)n1)c1ccc(Oc2c(Cl)cc3c(c2Cl)OCCC3C(=O)O)cc1` (stereo not shown) [Example 143, Sodium 6,8-dichloro-7-(4-(6-(4-chlorophenyl)pyridin-2-ylcarbamoyl)phenoxy)-chroman-4-carboxylate], 83.4 nM; under `O=C(Nc1ccc2cc(Cl)ccc2n1)c1ccc(Oc2c(Cl)cc3c(c2Cl)OCCC3C(=O)O)cc1` (stereo not shown) [Example 144, Sodium 6,8-dichloro-7-(4-(6-chloroquinolin-2-ylcarbamoyl)phenoxy)chroman-4-carboxylate], 299 nM.
For `O=C(Nc1ccc(-c2cccc(Cl)c2)nc1)c1ccc(Oc2c(Cl)cc3c(c2Cl)OCCC3C(=O)O)cc1` (stereo not shown) [Example 145, Sodium 6,8-dichloro-7-(4-(6-(3-chlorophenyl)pyridin-3-ylcarbamoyl)phenoxy)-chroman-4-carboxylate], the EC50 came out at 160 nM.
Same read-out and setting: the figure for `N#Cc1cc2c(cc1Oc1ccc(C(=O)Nc3nnc(-c4ccccc4)s3)cc1)OCCC2C(=O)O` (stereo not shown) [Example 146, 6-Cyano-7-(4-(5-phenyl-1,3,4-thiadiazol-2-ylcarbamoyl)phenoxy)chroman-4-carboxylic acid] is 728 nM.
The same measure, in the same setting: the figure for `N#Cc1cc2c(cc1Oc1ccc(C(=O)Nc3nnc(-c4ccc(Cl)cc4)s3)cc1)OCCC2C(=O)O` (stereo not shown) [Example 147, 7-(4-(5-(4-chlorophenyl)-1,3,4-thiadiazol-2-ylcarbamoyl)phenoxy)-6-cyanochroman-4-carboxylic acid] is 3440 nM; for `O=C(Nc1nnc(-c2ccccc2)s1)c1ccc(Oc2cc3c(cc2Cl)C(C(=O)O)CCO3)cc1` (stereo not shown) [Example 148, 6-chloro-7-(4-(5-phenyl-1,3,4-thiadiazol-2-ylcarbamoyl)phenoxy)chroman-4-carboxylic acid] it is 5460 nM; for `O=C(Nc1nnc(-c2ccc(Cl)cc2)s1)c1ccc(Oc2cc3c(cc2Cl)C(C(=O)O)CCO3)cc1` (stereo not shown) [Example 149, 6-chloro-7-(4-(5-(4-chlorophenyl)-1,3,4-thiadiazol-2-ylcarbamoyl)phenoxy)chroman-4-carboxylic acid] it is 1660 nM.
The same measure, in the same setting: the figure for `CC(C)(C)c1csc(NC(=O)c2ccc(Oc3cc4c(cc3Cl)C(C(=O)O)CCO4)cc2)n1` (stereo not shown) [Example 150, 7-(4-(4-tert-butylthiazol-2-ylcarbamoyl)phenoxy)-6-chlorochroman-4-carboxylic acid] is 32.7 nM.
Regarding `Cc1nc(NC(=O)c2ccc(Oc3cc4c(cc3Cl)C(C(=O)O)CCO4)cc2)sc1C(C)(C)C` (stereo not shown) [Example 151, 7-(4-(5-tert-butyl-4-methylthiazol-2-ylcarbamoyl)phenoxy)-6-chlorochroman-4-carboxylic acid], the EC50 was 473 nM.
Still for that read-out and setting: under `O=C(Nc1nc(-c2ccc(Cl)cc2)cs1)c1ccc(Oc2cc3c(cc2Cl)C(C(=O)O)CCO3)cc1` (stereo not shown) [Example 152, 6-chloro-7-(4-(4-(4-chlorophenyl)thiazol-2-ylcarbamoyl)phenoxy)chroman-4-carboxylic acid] stands 45.3 nM; under `O=C(Nc1nc(-c2ccc(F)cc2)cs1)c1ccc(Oc2cc3c(cc2Cl)C(C(=O)O)CCO3)cc1` (stereo not shown) [Example 153, 6-chloro-7-(4-(4-(4-fluorophenyl)thiazol-2-ylcarbamoyl)phenoxy)chroman-4-carboxylic acid], 67.5 nM.
Same read-out and setting: the figure for `O=C(Nc1nc(-c2ccc(F)c(F)c2)cs1)c1ccc(Oc2cc3c(cc2Cl)C(C(=O)O)CCO3)cc1` (stereo not shown) [Example 154, 6-chloro-7-(4-(4-(3,4-difluorophenyl)thiazol-2-ylcarbamoyl)phenoxy)chroman-4-carboxylic acid] is 59 nM.

Staying with this experiment, now noted: EC50 (nM) 4% HSA, 4% HSA.
`COc1ccc(CCNC(=O)c2ccc(Oc3cc4c(cc3Cl)C(C(=O)O)CCO4)cc2)c(OC)n1` (stereo not shown) [Example 140, Sodium 6-chloro-7-(4-(2-(2,6-dimethoxypyridin-3-yl)ethylcarbamoyl)phenoxy)chroman-4-carboxylate] gave an EC50 of 107 nM.
